According to BindingDB's records for doi:10.1210/endo.135.6.7988476 (Mcgill University, 1994):
Bridge positions count the residues as written; N and C are the ends. Square brackets hold non-standard residues; d marks the D form. Peptide text beside a SMILES is read from it. * marks the point of attachment. NH(1-naphthylmethyl) = c1ccc2c(CN*)cccc2c1

Experiments:
[1] = target: Somatostatin receptor type 1 (Homo sapiens, UniProt P30872)
[2] = target: Somatostatin receptor type 3 (Homo sapiens, UniProt P32745)
[3] = target: Somatostatin receptor type 2 (Homo sapiens, UniProt P30874)
[4] = target: Somatostatin receptor type 4 (Homo sapiens, UniProt P31391)
Chain of Somatostatin receptor type 4 (P31391 whole entry): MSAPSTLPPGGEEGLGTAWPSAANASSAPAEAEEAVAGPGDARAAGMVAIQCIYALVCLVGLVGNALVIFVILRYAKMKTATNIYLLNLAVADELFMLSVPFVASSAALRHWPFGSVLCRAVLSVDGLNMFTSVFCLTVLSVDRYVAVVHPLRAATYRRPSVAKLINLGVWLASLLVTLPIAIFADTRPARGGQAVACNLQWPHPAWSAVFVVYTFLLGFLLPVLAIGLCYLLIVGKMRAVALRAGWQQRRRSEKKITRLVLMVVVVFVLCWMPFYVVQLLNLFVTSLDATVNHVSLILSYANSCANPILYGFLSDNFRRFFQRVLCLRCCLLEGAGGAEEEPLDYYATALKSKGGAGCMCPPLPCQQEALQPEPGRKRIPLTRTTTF

Chain of Somatostatin receptor type 3 (P32745 whole entry): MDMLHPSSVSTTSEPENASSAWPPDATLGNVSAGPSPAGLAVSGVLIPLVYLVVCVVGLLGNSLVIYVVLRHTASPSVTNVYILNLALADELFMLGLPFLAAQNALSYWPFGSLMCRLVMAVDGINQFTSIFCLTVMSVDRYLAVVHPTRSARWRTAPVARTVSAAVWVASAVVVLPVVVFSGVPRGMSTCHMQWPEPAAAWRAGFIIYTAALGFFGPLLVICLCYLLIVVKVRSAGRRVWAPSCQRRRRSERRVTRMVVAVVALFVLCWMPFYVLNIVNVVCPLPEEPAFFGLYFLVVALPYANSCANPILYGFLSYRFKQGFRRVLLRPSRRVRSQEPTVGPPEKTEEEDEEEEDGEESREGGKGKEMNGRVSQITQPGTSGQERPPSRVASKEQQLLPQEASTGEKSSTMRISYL
Chain of Somatostatin receptor type 1 (P30872 whole entry): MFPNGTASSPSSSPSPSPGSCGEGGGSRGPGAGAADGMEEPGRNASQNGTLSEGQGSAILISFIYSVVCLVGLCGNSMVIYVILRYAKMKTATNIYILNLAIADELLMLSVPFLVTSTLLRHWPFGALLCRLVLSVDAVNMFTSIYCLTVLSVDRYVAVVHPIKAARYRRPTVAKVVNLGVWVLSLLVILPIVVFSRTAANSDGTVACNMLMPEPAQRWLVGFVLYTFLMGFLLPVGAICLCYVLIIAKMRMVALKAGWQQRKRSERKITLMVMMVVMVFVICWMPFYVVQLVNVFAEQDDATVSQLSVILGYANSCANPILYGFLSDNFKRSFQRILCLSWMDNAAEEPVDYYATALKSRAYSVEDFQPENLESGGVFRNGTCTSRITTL
Chain of Somatostatin receptor type 2 (P30874 whole entry): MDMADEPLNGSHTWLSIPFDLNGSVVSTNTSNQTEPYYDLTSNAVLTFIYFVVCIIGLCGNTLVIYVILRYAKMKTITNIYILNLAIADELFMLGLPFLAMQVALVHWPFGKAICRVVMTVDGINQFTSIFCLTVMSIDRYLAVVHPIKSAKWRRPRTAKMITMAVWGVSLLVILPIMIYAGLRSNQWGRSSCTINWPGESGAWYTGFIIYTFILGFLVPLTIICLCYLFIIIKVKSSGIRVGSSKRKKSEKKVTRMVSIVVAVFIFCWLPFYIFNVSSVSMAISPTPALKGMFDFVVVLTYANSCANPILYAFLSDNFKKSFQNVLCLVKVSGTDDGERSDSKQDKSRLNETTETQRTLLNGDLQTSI

Row | SMILES | Ki [1] [nM] | Ki [2] [nM] | Ki [3] [nM] | Ki [4] [nM]
1 | CC(C)C[C@H](NC(=O)[C@H](C)NC(=O)[C@@H]1CCCN1C(=O)[C@H](CC(N)=O)NC(=O)[C@H](CO)NC(=O)[C@H](CC(N)=O)NC(=O)[C@H](C)NC(=O)[C@@H](N)CO)C(=O)N[C@@H](C)C(=O)N1CCC[C@H]1C(=O)N[C@@H](CCCN=C(N)N)C(=O)N[C@@H](CCC(=O)O)C(=O)N[C@@H](CCCN=C(N)N)C(=O)N[C@@H](CCCCN)C(=O)N[C@@H](C)C(=O)NCC(=O)N[C@H]1CSSC[C@@H](C(=O)O)NC(=O)[C@H](CO)NC(=O)[C@H]([C@@H](C)O)NC(=O)[C@H](Cc2ccc(O)cc2)NC(=O)[C@H]([C@@H](C)O)NC(=O)[C@H](CCCCN)NC(=O)[C@@H](Cc2c[nH]c3ccccc23)NC(=O)[C@H](Cc2ccccc2)NC(=O)[C@H](Cc2ccccc2)NC(=O)[C@H](CC(N)=O)NC(=O)[C@H](CCCCN)NC1=O [Leu8, D-Trp22, Tyr25 SST-28] (H-SANSNPALAPRERKAGCKNFF[dW]KTYTSC-OH; disulfide 17-28) | 0.41 | 0.16 | 0.18 | 0.03
2 | NCCCCC1NC(=O)C(Cc2c[nH]c3ccccc23)NC(=O)C(Cc2ccc(O)cc2)NC(=O)C(NC(=O)C(N)Cc2ccccc2)CSSCC(C(=O)NCc2cccc3ccccc23)NC(=O)C(CO)NC1=O (stereo not drawn) [NC4-28B] (H-FCYWKSC-{NH(1-naphthylmethyl)}; disulfide 2-7; configuration not given here) | 37.4 | 8.9 | 4.4 | 195
